# Reference: US20230285411A1, “DRUG FORMULATION CONTAINING SEPETAPROST” (SANTEN PHARMACEUTICAL CO., LTD., priority 2020, published 2023)
# Experiments:
# Type in all cases: in vivo, cynomolgus monkey
# [1] = test system: monkeys with an inadequate response to latanoprost; experiment: Test for effect of sepetaprost on lowering intraocular pressure in monkeys with inadequate response to latanoprost; conditions: for intraocular pressure lowering action: 10 and 12 hours after the administration, in words; for intraocular pressure lowering width / intraocular pressure change value: 0.002% (w/v) eye drop; for intraocular pressure change value: 20 μL/eye once
# Experimental: Sepetaprost eye drop was administered to monkeys with an inadequate response to latanoprost, and its effect on lowering the intraocular pressure at 10 and 12 hours after the administration was evaluated.
# (Eye Drop) • Sepetaprost eye drop: Sepetaprost was dissolved in a base, and then, a sepetaprost eye drop with a concentration of 0.002% (w/v) was prepared by using a commonly used method.
# (§1) (Test Animals) • Cynomolgus monkeys: 7 animals (sex: male) selected in “1. Selection of monkeys with inadequate response to latanoprost”
# <Methods for Administration and Measurement> • (1) An intraocular pressure was measured immediately before administering the test eye drop and was defined as the pre-administration intraocular pressure value (0 hour). • (2) The test eye drop was administered once (20 μL/eye) to one eye (right eye) of the test animals using a […]. The contralateral eye was untreated. • (3) An intraocular pressure was measured at 10 and 12 hours after the administration. The intraocular pressure was measured three times for each to calculate its average value. An intraocular pressure change value (mmHg) was calculated as the difference from the pre-administration intraocular pressure value (0 hour) at each measurement time point.
# (§2) The test was conducted as a crossover study. The above-mentioned base was administered as a test eye drop to a control group. Two series of administering the sepetaprost eye drop were conducted and designated as a sepetaprost (first time) group and a sepetaprost (second time) group, respectively.
# [2] = test system: cynomolgus monkeys (monkeys with normal intraocular pressure), selected monkeys with an inadequate response to latanoprost; experiment: Selection of monkeys with inadequate response to latanoprost: intraocular pressure after single latanoprost eye drop; conditions: for intraocular pressure change value: 0.005% (w/v) eye drop, 20 μL/eye once, 7 selected monkeys
# Experimental: 1. Selection of monkeys with inadequate response to latanoprost Latanoprost eye drop was administered to cynomolgus monkeys (monkeys with normal intraocular pressure) and each individual animal was examined for responsiveness to latanoprost to select monkeys with an inadequate response to latanoprost.
# (§3) (Eye Drop) • Latanoprost eye drop: Xalatan® Eye Drops 0.005% (w/v) (Pfizer Japan Inc.)
# (Test Animals) • Cynomolgus monkeys: 32 animals (Sex/male)
# <Methods for Administration and Measurement> • (1) An intraocular pressure was measured immediately before administering the test eye drop and was defined as the pre-administration intraocular pressure value (0 hour). • (2) The test eye drop was administered once (20 μL/eye) to one eye (right eye) of the test animals using a PIPETMAN. The contralateral eye was untreated. • (3) An intraocular pressure was measured at 2, 4, and 6 hours after the administration. The intraocular pressure was measured three times for each to calculate its average value. An intraocular pressure change value (mmHg) was calculated as the difference from the pre-administration intraocular pressure value (0 hour) at each measurement time point.
# as §2, with “A physiological saline solution” for “The above-mentioned base”, “latanoprost” for “sepetaprost”
# [3] = test system: monkeys with an inadequate response to latanoprost; experiment: Test for effect of latanoprost on lowering intraocular pressure in monkeys with inadequate response to latanoprost; conditions: for intraocular pressure change value: 20 μL/eye once
# Experimental: Latanoprost eye drop was administered to the monkeys with an inadequate response to latanoprost, and its effect on lowering the intraocular pressure at 10 and 12 hours after the administration was evaluated.
# as §3, §1
# <Methods for Administration and Measurement> • (1) An intraocular pressure was measured immediately before administering the test eye drop and was defined as the pre-administration intraocular pressure value (0 hour). • (2) The test eye drop was administered once (20 μL/eye) to one eye (right eye) of the test animals using a PIPETMAN. The contralateral eye was untreated. • (3) An intraocular pressure was measured at 10 and 12 hours after the administration. The intraocular pressure was measured three times for each to calculate its average value. An intraocular pressure change value (mmHg) was calculated as the difference from the pre-administration intraocular pressure value (0 hour) at each measurement time point.
# [4] = first time group, 10 hours after administration
# [5] = first time group, 12 hours after administration
# [6] = second time group, 10 hours after administration
# [7] = second time group, 12 hours after administration
# [8] = 12 hours after administration, 0.005% (w/v) eye drop
structure (smiles),measurement,setting,value
"CC(C)OC(=O)CCC[C@H]1CC[C@@H]2[C@@H](/C=C/[C@@H](O)COc3cc(F)ccc3F)[C@H](O)C[C@@H]2OC1 [Sepetaprost, 2-propanyl 4-{(3S,5aR,6R,7R,8aS)-6-[(1E,3R)-4-(2,5-difluorophenoxy)-3-hydroxy-1-buten-1-yl]-7-hydroxyoctahydro-2H-cyclopenta[b]oxepin-3-yl}butanoate]",intraocular pressure lowering action,[1],adequate
same,intraocular pressure lowering action,[1]; listed as sepetaprost eye drop,significant
same,intraocular pressure lowering width,[1]; [4],3.1 mmHg
same,intraocular pressure change value,[1]; [4],−3.1 mmHg
same,intraocular pressure lowering width,[1]; [5],3.3 mmHg
same,intraocular pressure change value,[1]; [5],−3.3 mmHg
same,intraocular pressure lowering width,[1]; [6],2.6 mmHg
same,intraocular pressure change value,[1]; [6],−2.6 mmHg
same,intraocular pressure lowering width,[1]; [7],3.4 mmHg
same,intraocular pressure change value,[1]; [7],−3.4 mmHg
"CC(C)OC(=O)CCC/C=C\C[C@@H]1[C@@H](CC[C@@H](O)CCc2ccccc2)[C@H](O)C[C@@H]1O [Latanoprost, latanoprost]",change over time in the intraocular pressure,"[2]; first time and second time groups, up to 6 hours after the administration, in words",little change over time
same,intraocular pressure change value,"[2]; first time group, 2 hours after administration",1.0 mmHg
same,intraocular pressure change value,"[2]; first time group, 4 hours after administration",−0.2 mmHg
same,intraocular pressure change value,"[2]; first time group, 6 hours after administration",−0.6 mmHg
same,intraocular pressure change value,"[2]; second time group, 2 hours after administration",0.4 mmHg
same,intraocular pressure change value,"[2]; second time group, 4 hours after administration",0.0 mmHg
same,intraocular pressure change value,"[2]; second time group, 6 hours after administration",−0.1 mmHg
same,intraocular pressure change value,"[3]; 10 hours after administration, 0.005% (w/v) eye drop",−0.5 mmHg
same,intraocular pressure lowering width,[3]; [8],1.2 mmHg
same,intraocular pressure change value,[3]; [8],−1.2 mmHg
same,intraocular pressure lowering effect,"[3]; up to 12 hours after the administration, in words",inadequate
